Test systems include KM12 colon; OVCAR-5 ovarian; PC-3 prostate; M14 melanoma; ACHN renal; HOP-62 NSCLC; SK-OV-3 ovarian; NCI-H23 lung; NCI/ADR-RES ovarian; IGROV1 ovarian; U251 CNS; K-562 leukemia; MCF7 breast; A498 renal; RPMI-8226 leukemia; HOP-92 NSCLC.
What all share (assay): NCI-60 cell line screen, 48 h

The values that follow come from PubChem BioAssay (NCI).

The structures appear in SMILES notation.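 Where inhibition never reached the appropriate level, the endpoint shown equals the highest concentration tested. Otherwise, values were interpolated linearly from a five-concentration, 48-hour dose response in 96-well plates. Definition used: TGI = concentration required for complete inhibition of growth.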

On to `O=C(O)c1cc(-c2ccc3cc(O)c(O)cc3c2)ccc1O`, for which the TGI in the assay with KM12 colon, in the assay with OVCAR-5 ovarian, in the assay with PC-3 prostate, in the assay with M14 melanoma, in the assay on ACHN renal and with HOP-62 NSCLC was more than 12.5 µM throughout. Also, the TGI in the assay on SK-OV-3 ovarian, with NCI-H23 lung, in the assay on NCI/ADR-RES ovarian, with IGROV1 ovarian, with U251 CNS and with K-562 leukemia was more than 12.5 µM in each case. For the same compound, the TGI in the assay on MCF7 breast and in the assay on A498 renal was more than 12.5 µM each time.

Regarding `COc1ccccc1NC(=S)Nc1ccccn1`, the TGI in the assay with KM12 colon, in the assay on OVCAR-5 ovarian, with PC-3 prostate, in the assay on M14 melanoma, in the assay with HOP-62 NSCLC and with SK-OV-3 ovarian was more than 100 µM in each case. The TGI in the assay with NCI/ADR-RES ovarian, in the assay with IGROV1 ovarian, with U251 CNS, in the assay on RPMI-8226 leukemia, with K-562 leukemia and in the assay with MCF7 breast was more than 100 µM in each case. Further, in the assay with A498 renal, the TGI is more than 100 µM.

With `COc1ccc(-n2c(C)nc3ccc(NC4OC(COC(C)=O)C(OC(C)=O)C(OC(C)=O)C4OC(C)=O)cc3c2=O)cc1` (stereo not drawn), the TGI in the assay on KM12 colon, in the assay on OVCAR-5 ovarian, with PC-3 prostate, in the assay with ACHN renal, in the assay with HOP-62 NSCLC and in the assay on NCI-H23 lung was more than 100 µM in each case. For the same compound, the TGI with NCI/ADR-RES ovarian was more than 100 µM; with IGROV1 ovarian, more than 100 µM; with U251 CNS it was more than 100 µM; in the assay on RPMI-8226 leukemia it was 61.2 µM; in the assay with K-562 leukemia, 79 µM; in the assay on MCF7 breast, more than 100 µM. In the assay on A498 renal, this compound gave a TGI of more than 100 µM.

For the compound `CCOC1OC(CO[Si](C)(C)C(C)(C)C)C(O)CC1n1ccc(=O)[nH]c1=O` (stereo not drawn), the TGI in the assay with KM12 colon, in the assay with OVCAR-5 ovarian, with PC-3 prostate, with M14 melanoma, in the assay with ACHN renal and with NCI-H23 lung was more than 100 µM in each case. Besides, the TGI in the assay with NCI/ADR-RES ovarian is more than 100 µM; in the assay with IGROV1 ovarian, 48.6 µM; in the assay on HOP-92 NSCLC it was more than 100 µM; in the assay on U251 CNS, more than 100 µM; in the assay on RPMI-8226 leukemia, more than 100 µM; in the assay with K-562 leukemia it was 73.1 µM. For the same compound, the TGI in the assay with MCF7 breast is 88.7 µM; with A498 renal it was more than 100 µM.

Regarding `CC1(C)COC(c2cccc(C(=O)c3ccccc3)c2)=N1`, the TGI in the assay with KM12 colon, with OVCAR-5 ovarian, in the assay with PC-3 prostate, in the assay with ACHN renal, with HOP-62 NSCLC and with SK-OV-3 ovarian was more than 100 µM each time. Further, the TGI in the assay on NCI-H23 lung, with NCI/ADR-RES ovarian, in the assay with IGROV1 ovarian, in the assay on HOP-92 NSCLC, in the assay on U251 CNS and with RPMI-8226 leukemia was more than 100 µM throughout. The TGI in the assay with K-562 leukemia and in the assay with MCF7 breast was more than 100 µM throughout.

`CCOc1ccc(NC(=O)/C=C/c2ccco2)cc1`: the TGI with KM12 colon, in the assay with OVCAR-5 ovarian, with PC-3 prostate, in the assay with M14 melanoma, in the assay on ACHN renal and in the assay on SK-OV-3 ovarian was more than 100 µM in each case. Also, the TGI in the assay on NCI-H23 lung, in the assay on NCI/ADR-RES ovarian, in the assay with IGROV1 ovarian, in the assay with U251 CNS, with RPMI-8226 leukemia and in the assay on K-562 leukemia was more than 100 µM each time. Also, the TGI in the assay on MCF7 breast and with A498 renal was more than 100 µM in each case.

In the case of `CC(C)CC1C(=O)OC(C)(C)OC1=O`, the TGI in the assay with KM12 colon, in the assay on OVCAR-5 ovarian, with PC-3 prostate, in the assay on M14 melanoma, in the assay on ACHN renal and in the assay with HOP-62 NSCLC was more than 100 µM each time. Also, the TGI in the assay with SK-OV-3 ovarian, with NCI-H23 lung, with NCI/ADR-RES ovarian, in the assay on IGROV1 ovarian, in the assay on U251 CNS and in the assay on RPMI-8226 leukemia was more than 100 µM throughout. Moreover, the TGI in the assay on K-562 leukemia, with MCF7 breast and with A498 renal was more than 100 µM in each case.

`COC(=O)c1c(C)c2c(c(C)c1O)OC(=O)c1c(C)cc(O)c(C=O)c1O2`: the TGI with KM12 colon, with OVCAR-5 ovarian, in the assay with PC-3 prostate, with M14 melanoma, in the assay on ACHN renal and with HOP-62 NSCLC was more than 100 µM throughout. For the same compound, the TGI in the assay with SK-OV-3 ovarian, in the assay with NCI-H23 lung, with NCI/ADR-RES ovarian, in the assay with IGROV1 ovarian, in the assay with HOP-92 NSCLC and in the assay on U251 CNS was more than 100 µM each time. In addition, the TGI in the assay on RPMI-8226 leukemia, in the assay with K-562 leukemia and with MCF7 breast was more than 100 µM each time.

On to `c1ccc(Nc2nnc(-c3ccccc3Nc3ccccc3-c3nnc(Nc4ccccc4)s3)s2)cc1`, for which the TGI in the assay with KM12 colon, in the assay on OVCAR-5 ovarian, with PC-3 prostate, in the assay with M14 melanoma, with ACHN renal and in the assay on HOP-62 NSCLC was more than 100 µM throughout. Besides, the TGI with NCI-H23 lung, in the assay with NCI/ADR-RES ovarian, in the assay on IGROV1 ovarian, in the assay on HOP-92 NSCLC, in the assay with U251 CNS and in the assay on K-562 leukemia was more than 100 µM in each case. Besides, in the assay with MCF7 breast, the TGI was more than 100 µM.

As for `Cc1cc(O)c(C(O)c2ccccn2)cc1O` (stereo not drawn), the TGI is 82.3 µM in the assay with KM12 colon; 33.8 µM in the assay with OVCAR-5 ovarian; 29.1 µM in the assay on PC-3 prostate; 38.4 µM in the assay with M14 melanoma; 18.4 µM in the assay on ACHN renal; more than 100 µM in the assay with HOP-62 NSCLC. In addition, the TGI was 42.6 µM in the assay on NCI-H23 lung; 72.6 µM in the assay with NCI/ADR-RES ovarian; more than 100 µM in the assay with IGROV1 ovarian; more than 100 µM in the assay on U251 CNS; 67.4 µM with RPMI-8226 leukemia; more than 100 µM in the assay on K-562 leukemia. The same compound gave a TGI in the assay on MCF7 breast of 43.8 µM.
